Results: patent US20140309309A1, “COSMETIC FORMULATION” (EVONIK INDUSTRIES AG, priority 2011, published 2014)

Experiments:
[1] = system: human dermal fibroblasts; test: Gene expression in human dermal fibroblasts (Affymetrix GeneChip); type: cell-based; settings: 5 μM, 24 h, vs vehicle-treated fibroblasts
Text: The present example investigates the effect of N-hexanoyl-phytosphingosine on the gene expression in fibroblasts (normal human dermal fibroblasts, NHDFs).
For this, firstly primary human dermal fibroblasts (human dermal fibroblasts derived from neonatal skin, HDF), cryopreserved, Lifeline Cell Technology, acquired via CellSystems® Biotechnologie Vertrieb GmbH, in Minimum Essential Medium (MEM) with Earle's salts (EMEM) (PAA Laboratories GmbH) were cultivated with the addition of 10% foetal bovine serum (FBS, Invitrogen Ltd, UK), 1% nonessential amino acids (NEAA) (100×) (PAA Laboratories GmbH), 1% L-glutamine (100×) (Invitrogen Ltd) and 1% penicillin/streptomycin (5000 U/mL penicillin and 5000 μg/mL streptomycin/mL, (Invitrogen Ltd) at 37° C. and 5% CO2. For gene expression studies, the cells were sown out in 6-well plates and cultivated to the point of subconfluence (maximum 60%).
Then, the medium was removed from the cells and replaced by fresh medium containing N-hexanoyl-phytosphingosine. The vehicle used was methanol, the end concentration of the vehicle in the medium being 0.05% (v/v). The end concentration of N-hexanoyl-phytosphingosine in the medium was 5 μM. As the control, the cultivation was carried out without active ingredient, only with medium (vehicle). All of the cultivations were performed twice (with cells from two different donors).
(§1) After cultivation for 24 hours, the medium was removed and the cells were lysed by adding RNeasy Lysis Buffer (Qiagen). Isolation of whole-RNA was carried out in accordance with manufacturer's instructions. Combined, the whole-RNA was isolated by means of RNeasy Mini Kit (Qiagen). The RNA concentration was determined by spectrophotometry using a SmartSpec Plus (Biorad). Purity and integrity of the RNA were determined using Agilent 2100 Bioanalyzer with a 6000 Nano LabChip reagent set (Agilent Technologies, Inc.). RNA samples were stored at −80° C. until further processing.
(§2) Analysis of the gene expression was carried out using Affymetrix HGU133 plus 2.0 GeneChips (Affymetrix), with 2 μg of whole-RNA being used. For this, the RNA of the two different donor cultures was pooled. Expression analyses including standard data evaluation were carried out in accordance with manufacturer's instructions (AFFYMETRIX, INC.).

[2] = system: differentiated human adipocytes; test: Gene expression in differentiated human adipocytes (Affymetrix GeneChip); type: cell-based; settings: 2.5 μM, 6 h, vs vehicle-treated adipocytes
Procedure: This example investigated the effect of N-hexanoyl-phytosphingosine on the gene expression in differentiated human adipocytes.
Cells, media and reagents were acquired from PromoCell. The cultivation was carried out in accordance with the protocol from PromoCell. Unless stated otherwise, the cells were cultivated at 37° C. and 5% CO2. Firstly, proliferating subcutaneous primary human white preadipocytes (HWP) from two different donors were cultivated in a special preadipocyte growth medium until complete confluence was reached. The medium was then exchanged for a special differential medium, and the cells were incubated with this medium for 72 hours. The medium was then exchanged for a further medium (Adipocyte Nutrition Medium) in order to conclude the differentiation process. The cells were further incubated with this medium for twelve days, with media exchange being carried out every three days. Ultimately, the medium was removed from the cells and replaced by fresh medium containing N-hexanoyl-phytosphingosine. The vehicle used was methanol, the end concentration of the vehicle in the medium being 0.05% (v/v). End concentration of N-hexanoyl-phytosphingosine in the medium was 2.5 μM. As the control, the cultivation was carried out without active ingredient, only with medium (vehicle). All of the cultivations were performed twice (with cells from two different donors).
as §1, with “six” for “24”
as §2, with “(Affymetrix.).” for “(AFFYMETRIX, INC.).”

[3] = system: healthy female subjects; test: Human study, face: sagging of the skin assessed by a dermatologist (4-point scale); type: in vivo; settings: 0.2% by mass in formulation with 1,2-pentanediol, twice daily, twelve weeks, all time points, compared with vehicle group (FIG. 1)
Text: (§3) The panel comprises 60 healthy female subjects of Caucasian origin up to 70 years of age who were in their postmenopausal phase (average age 59.4 years). The formulations were applied on the face. Vehicle formulation (vehicle) and N-hexanoyl-phytosphingosine formulation (N-hexanoyl-phytosphingosine) was each applied by 30 subjects. In the case of the non-inventive vehicle formulation, which serves as comparison formulation, the 0.2% by mass of N-hexanoyl-phytosphingosine were replaced by an additional 0.2% by mass of water.
(§4) Application was carried out twice daily, morning and evening, over a period of twelve weeks. Measurement points were before the start of application (T0), after four weeks (T4), after eight weeks (T8) and after twelve weeks (T12). A period over four weeks is accordingly referred to as T4-T0.
(§5) The measurements were performed in a temperature- and humidity-controlled room (24±2° C., 50±10 relative humidity). The subjects were requested to apply no product up to twelve hours prior to measurement and to wash their face three hours before measurement.
The sagging of the skin was assessed by a dermatologist by means of visual and tactile evaluation by reference to a 4-point scale (0=absent, 1=minimum, 2=moderate, 3=maximum).

[4] = system: healthy female subjects; test: Human study, face: skin roughness (Primos Pico, Sa parameter); type: in vivo; settings: 0.2% by mass in formulation, twice daily, entire study period of twelve weeks (FIG. 2)
Text: as §3
Application was carried out twice daily, morning and evening, over a period of twelve weeks. Measurement points were before the start of application (T0), after four weeks (T4), after eight weeks (T8) and after twelve weeks (T12). A period over four weeks is accordingly referred to as T4-T0. […]
The roughness of the skin was determined by means of Primos Pico optical 3D-Sensor (GF Messtechnik GmbH). […] Bands are projected onto the surface of the skin and the projection is recorded under a defined triangulation angle by means of a CCD camera. The topography of the measured object is calculated by the position of the bands and the grey scales of all registered image points. […] The average roughness Sa was determined; this reflects the arithmetic mean of the skin roughness in the recorded image.

[5] = system: healthy female subjects; test: Human study, face: echogenicity of the skin (DermaScan C); type: in vivo; settings: 0.2% by mass in formulation, twice daily
Text: as §3, §4, §5
The echogenicity of the skin was measured using a DermaScan® C ultrasound scanner. The instrument is based on the physical principle of the ultrasound emission of a transducer. […] Their intensity is detected by a microprocessor. […] The echogenicity was recorded in the B-scan mode and given in %. […]

[6] = Percutaneous absorption study on a pig skin model; type: in vitro ADME; settings: 0.2% in formulation in combination with 1.80% 1,2-pentanediol vs corresponding formulations without 1,2-pentanediol (FIG. 4)
Procedure: The increase in the skin penetration of N-hexanoyl-phytosphingosine from a cosmetic formulation as a result of adding 1,2-pentanediol was shown in the course of a percutaneous absorption study on a pig skin model. In practice, the study was performed in accordance with a current protocol, as described for example in S. Richert, A. Schrader, K. Schrader, Int. J. Cosmet. Sci. 2003, 25, 5-13.

[7] = system: healthy female subjects; test: Human study, upper arm: echogenicity of the skin (DermaScan C); type: in vivo; settings: twice daily
Text: The panel consisted of healthy female subjects of Caucasian origin up to 70 years old who were in their postmenopausal phase. The echogenicity of the skin on the upper arms of the subjects was at most 60% (DermaScan® C, B-scan mode). The formulations were applied to the upper arms. Vehicle formulation (vehicle) and formulation with different concentrations of N-hexanoyl-phytosphingosine (N-hexanoyl-phytosphingosine) was applied by in each case 16 subjects. In the non-inventive vehicle formulation, which serves as comparison formulation, the corresponding % by mass of N-hexanoyl-phytosphingosine were replaced by additional % by mass of water.
as §4
The measurements were performed in a temperature- and humidity-controlled room (24±2° C., 50±10 relative humidity). The subjects were asked to apply no product up to twelve hours before measurement and to no longer wash their arms from three hours before measurement.
The skin slackening was measured by measuring the echogenicity of the skin by means of a DermaScan® C ultrasound scanner. The echogenicity was recorded in the B-scan mode and given in %. […]

bioavailability (skin penetration) of N-hexanoyl-phytosphingosine from formulation [6]: increase in bioavailability
Structure (SMILES): CCCCCCCCCCCCCC[C@@H](O)[C@@H](O)[C@H](CO)NC(=O)CCCCC [N-hexanoyl-phytosphingosine]
Regulation of the gene expression by N-hexanoyl-phytosphingosine: ACAN (aggrecan) [1]: +1.7 fold
Regulation of the gene expression by N-hexanoyl-phytosphingosine: COL10A1 (collagen, type X, alpha 1) [1]: +3.2 fold
Regulation of the gene expression by N-hexanoyl-phytosphingosine: COL11A1 (collagen, type XI, alpha 1) [1]: +2.2 fold
Regulation of the gene expression by N-hexanoyl-phytosphingosine: FGF18 (fibroblast growth factor 18) [1]: +2.2 fold
Regulation of the gene expression by N-hexanoyl-phytosphingosine: HAPLN1 (hyaluronan and proteoglycan link protein) [1]: +4.1 fold
Regulation of the gene expression by N-hexanoyl-phytosphingosine: IGF1 (insulin-like growth factor 1) [1]: +2.0 fold
Regulation of the gene expression by N-hexanoyl-phytosphingosine: ITGA2 (integrin alpha-2) [1]: +1.6 fold
Regulation of the gene expression by N-hexanoyl-phytosphingosine: LEP (leptin) [1]: +2.2 fold
Regulation of the gene expression by N-hexanoyl-phytosphingosine: MMP3 (matrix metallopeptidase 3) [1]: −1.4 fold
Regulation of the gene expression by N-hexanoyl-phytosphingosine: ACACA (acetyl-coenzyme A carboxylase alpha) [2]: +1.5 fold
Regulation of the gene expression by N-hexanoyl-phytosphingosine: ADIPOQ (adiponectin) [2]: +2.2 fold
Regulation of the gene expression by N-hexanoyl-phytosphingosine: CEBPB (CAAT/enhancer binding protein (C/EBP), beta) [2]: +2.1 fold
Regulation of the gene expression by N-hexanoyl-phytosphingosine: FAS (fatty acid synthase) [2]: +1.4 fold
Regulation of the gene expression by N-hexanoyl-phytosphingosine: LEP (leptin) [2]: +2.7 fold
Regulation of the gene expression by N-hexanoyl-phytosphingosine: LEPR (leptin receptor) [2]: +4.1 fold
Regulation of the gene expression by N-hexanoyl-phytosphingosine: LIPC (lipase) [2]: −2.5 fold
Regulation of the gene expression by N-hexanoyl-phytosphingosine: PPARD (peroxisome proliferator activated receptor, delta) [2]: +1.7 fold
Regulation of the gene expression by N-hexanoyl-phytosphingosine: PPARG (peroxisome proliferator activated receptor, gamma) [2]: +2.5 fold
Regulation of the gene expression by N-hexanoyl-phytosphingosine: THBS1 (thrombospondin 1) [2]: +5.9 fold
decrease in sagging of the skin [3]: more marked
change in skin roughness (Sa parameter) [4]: steadily further reduced
change in the echogenicity of the skin ([5]; after four weeks (T4-T0) (FIG. 3)): slight decrease in echogenicity
change in the echogenicity of the skin ([5]; as the study progressed (to T12) (FIG. 3)): steadily improved
echogenicity of the skin on the upper arm compared with the starting value ([7]; 0.02% in formulation, increase only measurable after a treatment time of eight weeks (FIG. 5)): less marked
echogenicity of the skin on the upper arm compared with the starting value ([7]; 0.05% in formulation, four, eight and twelve weeks (FIG. 5)): increase in the echogenicity of the skin
